Assay results from patent US20260109712A1, “RIFAMYCINS FOR NONTUBERCULOUS MYCOBACTERIA” (priority 2022, published 2026).
≈ marks a conversion by molar mass, not a printed value. Like-named read-outs stand apart in the source and are kept apart here.

Columns and labels:
M. abscessus ATCC 19977 = assay: MIC assay in 96-well plate format, wild-type strain; format: cell-based, Mycobacterium abscessus; details: for MIC ratio: WT MIC/Δarr strain MIC
Protocol: (§1) MIC determination was carried out in 96-well plate format as previously described.^[13-14] 96-well plates were initially set up with 100 μL of 7H9 per well. For each compound, a ten-point two-fold dilution series starting at twice the desired highest concentration was dispensed onto the 96-well plates using a Tecan D300e Digital Dispenser, with the DMSO concentration normalized to 2%. M. abscessus culture grown to mid-log phase (OD600=0.4-0.6) was diluted to OD600=0.1 (1×10^7 CFU/mL). […] Untreated control wells are included on each plate that contain bacteria suspension and 1% DMSO. Plates were sealed with parafilm, stored in boxes with wet paper towels and incubated at 37° C. with shaking (110 RPM). Plates were incubated for 3 days. To determine growth, OD600 was measured using a Tecan Infinite M200 plate reader on Day 0 and Day 3. Two biological replicates were performed. Clarithromycin was included in each experiment as a positive control.
(§2) For each well on the 96-well plate, bacterial growth was calculated by subtracting the Day 0 OD600 value from the Day 3 OD600 value. […] For compound-containing wells, percentage growth was calculated by dividing their growth values by the average drug-free bacterial growth for the compound series and multiplying by 100. For each compound series, we plotted percentage growth versus compound concentration.

Δarr M. abscessus = assay: MIC assay, isogenic arr-deleted strain; format: cell-based, Mycobacterium abscessus; details: arr-deleted strain; 90% growth inhibition
Protocol: as §1, §2

[1] = Plasma protein binding assay (rapid equilibrium dialysis); format: in vitro ADME; details: 4 h, 10000 ng/mL
Protocol: DMSO stocks were spiked into plasma to a concentration of 10,000 ng/mL. 200 μL of spiked plasma was pipetted into the sample chamber of the rapid equilibrium dialysis (RED) cartridge. 350 μL of PBS was added to the adjacent cartridge. The plate containing the RED was sealed and incubated at 37° C. on the thermomixer at 300 RPM for 4 h. After incubation, 50 μL aliquots of plasma were removed and added to 50 μL of blank plasma in a deep well plate (1:1). Similarly, 50 μL aliquots of PBS were removed and added to 50 μL of blank plasma. This created an identical matrix between buffer and non-buffer samples. Samples were processed and quantified as specified in the LC-MS/MS analytical method.

[2] = M. abscessus ATCC 19977, 90% growth inhibition, read-out: WT Mab MIC
[3] = Mycobacterium abscessus ATCC 19977, Table 11, read-out: MIC
[4] = Mycobacteroides abscessus, ATCC19977, Table 15, heterocyclic aromatic carbamates, read-out: WT Mab MIC
[5] = Mycobacteroides abscessus, ATCC19977, Table 14, carbamate analogs, read-out: WT Mab MIC

CCC(C)C(=O)OC1C(C)C(OC)C=COC2(C)Oc3c(C)c(O)c4c(c3C2=O)C2=NC3(CCN(CC(C)C)CC3)NC2=C(NC(=O)C(C)=CC=CC(C)C(O)C(C)C(O)C1C)C4=O (mixture of isomers) [5k]
MIC (M. abscessus ATCC 19977; [2]): 1.1 µM | MIC ratio (M. abscessus ATCC 19977): 39.3 | Δarr Mab MIC (Δarr M. abscessus): 0.028 µM

CO[C@H]1/C=C/O[C@@]2(C)Oc3c(C)c(O)c4c(c3C2=O)C2=NC3(CCN(CC(C)C)CC3)NC2=C(NC(=O)/C(C)=C/C=C/[C@H](C)[C@H](O)[C@@H](C)[C@@H](O)[C@@H](C)[C@H](OC(=O)c2cccc(C)c2)[C@@H]1C)C4=O [5c, 25-O-(3-methylbenzoyl)-25-O-desacetyrifabutin]
MIC (M. abscessus ATCC 19977; [2]): 0.075 µM (≈ 0.0692 µg/mL) | MIC ratio (M. abscessus ATCC 19977): 1.2 | Δarr Mab MIC (Δarr M. abscessus): 0.065 µM

CO[C@H]1/C=C/O[C@@]2(C)Oc3c(C)c(O)c4c(c3C2=O)C2=NC3(CCN(CC(C)C)CC3)NC2=C(NC(=O)/C(C)=C/C=C/[C@H](C)[C@H](O)[C@@H](C)[C@@H](O)[C@@H](C)[C@H](OC(=O)N2CCN(C)C(C)C2)[C@@H]1C)C4=O (stereo partly drawn) [UMN52]
MIC (M. abscessus ATCC 19977; [3]): 0.097 µM (≈ 0.0917 µg/mL)

CO[C@H]1/C=C/O[C@@]2(C)Oc3c(C)c(O)c4c(c3C2=O)C2=NC3(CCN(CC(C)C)CC3)NC2=C(NC(=O)/C(C)=C/C=C/[C@H](C)[C@H](O)[C@@H](C)[C@@H](O)[C@@H](C)[C@H](OC(=O)c2cc(Cl)c(Cl)cc2C(=O)O)[C@@H]1C)C4=O [UMN99, 25-O-(6-carboxyl-3,4-dichlorobenzoyl)-25-O-desacetyrifabutin]
MIC (M. abscessus ATCC 19977; [3]): 0.1 µM (≈ 0.102 µg/mL)

CO[C@H]1/C=C/O[C@@]2(C)Oc3c(C)c(O)c4c(c3C2=O)C2=NC3(CCN(CC(C)C)CC3)NC2=C(NC(=O)/C(C)=C/C=C/[C@H](C)[C@H](O)[C@@H](C)[C@@H](O)[C@@H](C)[C@H](OC(=O)NCc2cn(-c3cccc(Br)c3)nn2)[C@@H]1C)C4=O [UMN104]
MIC (M. abscessus ATCC 19977; [3]): 0.032 µM (≈ 0.0347 µg/mL)

CO[C@H]1/C=C/O[C@@]2(C)Oc3c(C)c(O)c4c(c3C2=O)C2=NC3(CCN(CC(C)C)CC3)NC2=C(NC(=O)/C(C)=C/C=C/[C@H](C)[C@H](O)[C@@H](C)[C@@H](O)[C@@H](C)[C@H](OC(=O)Nc2ccccc2F)[C@@H]1C)C4=O [UMN106]
MIC (M. abscessus ATCC 19977; [3]): 0.034 µM (≈ 0.032 µg/mL)

CO[C@H]1/C=C/O[C@@]2(C)Oc3c(C)c(O)c4c(c3C2=O)C2=NC3(CCN(CC(C)C)CC3)NC2=C(NC(=O)/C(C)=C/C=C/[C@H](C)[C@H](O)[C@@H](C)[C@@H](O)[C@@H](C)[C@H](OC(=O)Nc2cccc(F)c2)[C@@H]1C)C4=O [UMN107]
MIC (M. abscessus ATCC 19977; [3]): 0.1 µM (≈ 0.0942 µg/mL)

CO[C@H]1/C=C/O[C@@]2(C)Oc3c(C)c(O)c4c(c3C2=O)C2=NC3(CCN(CC(C)C)CC3)NC2=C(NC(=O)/C(C)=C/C=C/[C@H](C)[C@H](O)[C@@H](C)[C@@H](O)[C@@H](C)[C@H](OC(=O)Nc2ccc(F)cc2)[C@@H]1C)C4=O [UMN108]
MIC (M. abscessus ATCC 19977; [3]): 0.062 µM (≈ 0.0584 µg/mL)

CO[C@H]1/C=C/O[C@@]2(C)Oc3c(C)c(O)c4c(c3C2=O)C2=NC3(CCN(CC(C)C)CC3)NC2=C(NC(=O)/C(C)=C/C=C/[C@H](C)[C@H](O)[C@@H](C)[C@@H](O)[C@@H](C)[C@H](OC(=O)Nc2ccccn2)[C@@H]1C)C4=O [UMN117]
MIC (M. abscessus ATCC 19977; [4]): 0.025 µM (≈ 0.0231 µg/mL) | ƒu [1]: 0.9%

CO[C@H]1/C=C/O[C@@]2(C)Oc3c(C)c(O)c4c(c3C2=O)C2=NC3(CCN(CC(C)C)CC3)NC2=C(NC(=O)/C(C)=C/C=C/[C@H](C)[C@H](O)[C@@H](C)[C@@H](O)[C@@H](C)[C@H](OC(=O)Nc2ccnnc2)[C@@H]1C)C4=O [UMN119]
MIC (M. abscessus ATCC 19977; [4]): 0.05 µM (≈ 0.0463 µg/mL) | ƒu [1]: 6.1%

COc1ccc(S(=O)(=O)NC(=O)O[C@H]2[C@H](C)[C@H](O)[C@H](C)[C@@H](O)[C@@H](C)/C=C/C=C(\C)C(=O)NC3=C4NC5(CCN(CC(C)C)CC5)N=C4c4c(c(O)c(C)c5c4C(=O)[C@@](C)(O/C=C/[C@H](OC)[C@H]2C)O5)C3=O)cc1 [UMN122]
MIC (M. abscessus ATCC 19977; [3]): 0.14 µM (≈ 0.143 µg/mL)

CO[C@H]1/C=C/O[C@@]2(C)Oc3c(C)c(O)c4c(c3C2=O)C2=NC3(CCN(CC(C)C)CC3)NC2=C(NC(=O)/C(C)=C/C=C/[C@H](C)[C@H](O)[C@@H](C)[C@@H](O)[C@@H](C)[C@H](OC(=O)Nc2nccc3ccccc23)[C@@H]1C)C4=O [UMN124]
MIC (M. abscessus ATCC 19977; [3]): 0.027 µM (≈ 0.0263 µg/mL)

CO[C@H]1/C=C/O[C@@]2(C)Oc3c(C)c(O)c4c(c3C2=O)C2=NC3(CCN(CC(C)C)CC3)NC2=C(NC(=O)/C(C)=C/C=C/[C@H](C)[C@H](O)[C@@H](C)[C@@H](O)[C@@H](C)[C@H](OC(=O)Nc2ccc3cnccc3n2)[C@@H]1C)C4=O [UMN127]
MIC (M. abscessus ATCC 19977; [3]): 0.03 µM (≈ 0.0293 µg/mL)

CO[C@H]1/C=C/O[C@@]2(C)Oc3c(C)c(O)c4c(c3C2=O)C2=NC3(CCN(CC(C)C)CC3)NC2=C(NC(=O)/C(C)=C/C=C/[C@H](C)[C@H](O)[C@@H](C)[C@@H](O)[C@@H](C)[C@H](OC(=O)Nc2cnn3ccccc23)[C@@H]1C)C4=O [UMN129]
MIC (M. abscessus ATCC 19977; [3]): 0.044 µM (≈ 0.0424 µg/mL)

CO[C@H]1/C=C/O[C@@]2(C)Oc3c(C)c(O)c4c(c3C2=O)C2=NC3(CCN(CC(C)C)CC3)NC2=C(NC(=O)/C(C)=C/C=C/[C@H](C)[C@H](O)[C@@H](C)[C@@H](O)[C@@H](C)[C@H](OC(=O)Nc2cnc3cc(C)nn3c2)[C@@H]1C)C4=O [UMN130]
MIC (M. abscessus ATCC 19977; [3]): 0.049 µM (≈ 0.048 µg/mL)

CO[C@H]1/C=C/O[C@@]2(C)Oc3c(C)c(O)c4c(c3C2=O)C2=NC3(CCN(CC(C)C)CC3)NC2=C(NC(=O)/C(C)=C/C=C/[C@H](C)[C@H](O)[C@@H](C)[C@@H](O)[C@@H](C)[C@H](OC(=O)Nc2cnc3ccccc3n2)[C@@H]1C)C4=O [UMN134]
MIC (M. abscessus ATCC 19977; [3]): 0.03 µM (≈ 0.0293 µg/mL)

CO[C@H]1/C=C/O[C@@]2(C)Oc3c(C)c(O)c4c(c3C2=O)C2=NC3(CCN(CC(C)C)CC3)NC2=C(NC(=O)/C(C)=C/C=C/[C@H](C)[C@H](O)[C@@H](C)[C@@H](O)[C@@H](C)[C@H](OC(=O)Nc2cn3ccccc3n2)[C@@H]1C)C4=O [UMN136]
MIC (M. abscessus ATCC 19977; [3]): 0.061 µM (≈ 0.0588 µg/mL)

CO[C@H]1/C=C/O[C@@]2(C)Oc3c(C)c(O)c4c(c3C2=O)C2=NC3(CCN(CC(C)C)CC3)NC2=C(NC(=O)/C(C)=C/C=C/[C@H](C)[C@H](O)[C@@H](C)[C@@H](O)[C@@H](C)[C@H](OC(=O)Nc2cc3ccccn3n2)[C@@H]1C)C4=O [UMN142]
MIC (M. abscessus ATCC 19977; [3]): 0.033 µM (≈ 0.0318 µg/mL)

CO[C@H]1/C=C/O[C@@]2(C)Oc3c(C)c(O)c4c(c3C2=O)C2=NC3(CCN(CC(C)C)CC3)NC2=C(NC(=O)/C(C)=C/C=C/[C@H](C)[C@H](O)[C@@H](C)[C@@H](O)[C@@H](C)[C@H](OC(=O)Nc2cn3ccsc3n2)[C@@H]1C)C4=O [UMN145]
MIC (M. abscessus ATCC 19977; [3]): 0.065 µM (≈ 0.0631 µg/mL)

CO[C@H]1/C=C/O[C@@]2(C)Oc3c(C)c(O)c4c(c3C2=O)C2=NC3(CCN(CC(C)C)CC3)NC2=C(NC(=O)/C(C)=C/C=C/[C@H](C)[C@H](O)[C@@H](C)[C@@H](O)[C@@H](C)[C@H](OC(=O)NC2CCN(C)CC2)[C@@H]1C)C4=O [UMN146]
MIC (M. abscessus ATCC 19977; [5]): 0.09 µM (≈ 0.0851 µg/mL) | ƒu [1]: 10.8%

CO[C@H]1/C=C/O[C@@]2(C)Oc3c(C)c(O)c4c(c3C2=O)C2=NC3(CCN(CC(C)C)CC3)NC2=C(NC(=O)/C(C)=C/C=C/[C@H](C)[C@H](O)[C@@H](C)[C@@H](O)[C@@H](C)[C@H](OC(=O)NC2CCN(C(C)C)CC2)[C@@H]1C)C4=O [UMN147]
MIC (M. abscessus ATCC 19977; [5]): 0.098 µM (≈ 0.0954 µg/mL) | ƒu [1]: 7.5%

CCN1CCC(NC(=O)O[C@H]2[C@H](C)[C@H](O)[C@H](C)[C@@H](O)[C@@H](C)/C=C/C=C(\C)C(=O)NC3=C4NC5(CCN(CC(C)C)CC5)N=C4c4c(c(O)c(C)c5c4C(=O)[C@@](C)(O/C=C/[C@H](OC)[C@H]2C)O5)C3=O)CC1 [UMN149]
MIC (M. abscessus ATCC 19977; [5]): 0.078 µM (≈ 0.0748 µg/mL) | ƒu [1]: 10.4%

CO[C@H]1/C=C/O[C@@]2(C)Oc3c(C)c(O)c4c(c3C2=O)C2=NC3(CCN(CC(C)C)CC3)NC2=C(NC(=O)/C(C)=C/C=C/[C@H](C)[C@H](O)[C@@H](C)[C@@H](O)[C@@H](C)[C@H](OC(=O)NC2CCN(CC(C)C)CC2)[C@@H]1C)C4=O [UMN150]
MIC (M. abscessus ATCC 19977; [5]): 0.054 µM (≈ 0.0533 µg/mL) | ƒu [1]: 3.6%
